From patent US8940491B2, “Genotoxicity as a biomarker for inflammation” (The Regents of the University of California, priority 2009, dated 2015)
Entries after “also recorded” stand apart in the source; their conditions may differ.

Tests used:
peripheral leukocytes [1] = settings: mouse, in vivo
Protocol: Alkaline comet assay. To detect DNA strand breaks, as well as alkali labile sites in DNA, the alkaline comet assay was performed as described elsewhere (4). Frozen blood or single cell suspensions were thawed on ice and further diluted 1:15 in PBS before further sample preparation. After lysis and electrophoresis, gels were stained with SYBR Gold (Molecular Probes) and visualized under a fluorescent microscope (Olympus Ax70, Tokyo, Japan) at 10× magnification. Comet images were captured and analyzed with the CASP image analysis program (http://casp.sourceforge.net). The olive tail moment, which represents both tail length and fraction of DNA in the tail, was used for data collection and analysis, in which apoptotic cells were excluded under previously proposed criteria (4).
Injection of cytokines. Mouse TNF-α (Sigma) and/or mouse IL-1β (Sigma) were injected via the tail vein at 500 ng/mouse and 100 ng/mouse, respectively, dissolved in saline. Control animals received vehicle only. Peripheral blood was collected at 1 hr, 2 hrs, 4 hrs, and 24 hrs after injection for genotoxicity assays.

[2] = system: normochromatic erythrocytes; assay: Micronucleus assay after cytokine injection; assay type: in vivo, mouse; settings: 48 hours post-injection compared to before injection
Protocol: In vivo micronucleus assay. Micronucleus formation was determined in normochromatic erythrocytes as micronucleated normochromatic erythrocytes per 1000 normochromatic erythrocytes as described previously (1, 8).
Injection of cytokines. […] Control animals received vehicle only.

peripheral blood T-cells = assay: Flow cytometry of activated T-cells (CD69, CD44) in peripheral blood, DSS colitis; assay type: in vivo, mouse; settings: in response to DSS treatment
Description: Flow Cytometry. T cell populations were characterized for activation status (CD69 and CD44) and CD4 or CD8α expression using flow cytometry. Erythrocytes were immediately lysed with BD PharmLyse Lysis Buffer (BD Biosciences, San Diego, Calif.). After washing with Stain Buffer with 0.2% BSA (BD), cells were stained with FITC conjugated Hamster Anti-Mouse CD69, FITC conjugated Rat Anti-Mouse/Human CD44, R-PE conjugated Rat Anti-Mouse CD4, PerCP Rat Anti-Mouse CD8α, or appropriate negative isotype controls (BD Biosciences) for 30 min at 4° C. Cells were then washed and analyzed using BD FACScan. Fluorescence intensity was normalized to each respective isotype control antibody and data were analyzed with CellQuest® (BD Biosciences). Dead cells were excluded by gating on forward/side scatter. Marker expression was recorded either as percent positive of the absolute count of total T cells, or by median fluorescence intensity if the control and marker populations overlapped.

mice = assay: Disease activity index in DSS-induced experimental colitis; assay type: in vivo
Protocol: Induction of chemical colitis. […] Acute colitis was defined as a 7 day treatment, and chronic colitis as any further treatment including remission periods. Control animals received sterile acidified water only. Symptoms (weight loss, stool consistency, gross bleeding) were recorded daily for calculation of disease activity index (23).
Evaluation of Experimental Colitis. The disease activity index (DAI) is the average combined score of weight loss (0-4), stool consistency (0-4), and bleeding (0-4), used to score clinical symptoms (23).

[3] = literature references; cited from earlier work
peripheral leukocytes [4] = assay: Alkaline comet assay with and without hOgg1 incubation, DSS colitis; assay type: in vivo, mouse
Description: Blood collection. […] Identical blood samples were used for genotoxic endpoints as well as for cytokine expression.
Alkaline comet assay. […] Frozen blood was further diluted 1:15 in PBS before further preparation.
Determination of oxidative DNA damage. The enzyme hOgg1-modified comet assay was used for determination of oxidative DNA damage (25). […] (New England Biolabs, Ipswich, Mass.).

peripheral leukocytes [5] = assay: 8-oxoguanine and nitrotyrosine immunofluorescence, DSS colitis; assay type: in vivo, mouse; settings: DSS 7 days, 3% w/v; p<0.01
Description: (§1) Immunofluorescence. […] Samples were then processed on coverslips essentially as described elsewhere (26).
8-oxoguanine is an oxidative DNA lesion formed by reaction of hydroxyl radicals, metal hyrdroperoxides, or peroxynitrite with DNA, causing G:C to T:A transversions during replication (33). Nitrotyrosine is a biochemical marker for NO-induced peroxynitrite formation involving reactions with reactive oxygen and nitrogen species resulting in nitrative damage to proteins (34).

erythroblasts = assay: In vivo micronucleus assay in Atm−/−, Atm+/− and wildtype mice with DSS colitis; parameters: species or system mouse; settings: all genotypes, more severe in Atm−/−
Protocol: In vivo micronucleus assay. […] At least 4000 mature erythrocytes were counted per animal, and the frequency of MN formation was calculated as the number of micronucleated erythrocytes per 1000 normochromatic erythrocytes.

peripheral leukocytes [6] = assay: γ-H2AX immunofluorescence, DSS colitis; assay type: in vivo, mouse
Description: as §1

Molecule	Sufficiency to induce genotoxicity to peripheral leukocytes (peripheral leukocytes [1])	Time post-injection within which DNA damage was repaired (peripheral leukocytes [1]) [h]	Micronuclei formation in circulating normochromatic erythrocytes [2]	Proportion of activated (CD69+, CD44+) T-cells, Atm−/− vs wildtype mice (peripheral blood T-cells)	Mortality (mice; after three cycles of DSS treatment, wildtype mice)	Start of rectal bleeding (mice; cycle 1 of 3% DSS treatment) [days]	Mutagenicity / direct genotoxicity of DSS itself [3]	Mean olive tail moment (DNA single and double strand breaks, alkali-labile sites) (peripheral leukocytes [4]; DSS treated vs non-treated mice, end of each cycle, p<0.01)	Mean olive tail moment with hOgg1 incubation (oxidative base damage) (peripheral leukocytes [4]; after treatment cycles, treated vs hOgg1 incubated non-treated mice, p<0.05)	8-oxoguanine and nitrotyrosine positive peripheral leukocytes (peripheral leukocytes [5])	Micronucleus formation in erythroblasts (toxicity of inflammation) (erythroblasts)	Percentage of cells positive for γ-H2AX nuclear foci (peripheral leukocytes [6]; after the first 7 day acute DSS treatment vs non-treated, p<0.01)	Percentage of cells positive for γ-H2AX nuclear foci (peripheral leukocytes [6]; later cycles until end of treatment vs non-treated, p<0.05)
TNF-α	sufficient to induce genotoxicity	≤ 24	minimally yet significantly elevated										
dextran sulfate sodium [DSS]				significantly larger proportion of these T-cells are activated	no mortalities were observed	4	not directly genotoxic; also recorded: not a mutagen nor genotoxic	significantly higher olive tail moments at the end of each cycle	higher when incubated with hOgg1 after treatment cycles	significant increase in both 8-oxoguanine and nitrotyrosine	evident as early as after the acute 7 day treatment	increased dramatically	remained elevated over non-treated animals until end of treatment
IL-1β: mouse IL-1β (Sigma) injected via the tail vein at 100 ng/mouse (protein, UniProt P10749 118-269, looked up) Interleukin-1 beta: VPIRQLHYRLRDEQQKSLVLSDPYELKALHLNGQNINQQVIFSMSFVQGEPSNDKIPVALGLKGKNLYLSCVMKDGTPTLQLESVDPKQYPKKKMEKRFVFNKIEVKSKVEFESAEFPNWYISTSQAEHKPVFLGNNSGQDIIDFTMESVSS		≤ 24											
